System: MCT-PAH
Assay: Monocrotaline-induced PAH rat model, right heart catheterisation and histology
Assay type: in vivo, Ratten
Settings: MCT-PAH rats, three times weekly for two weeks, intratracheal nebulisation 275 nmol/kg
From the text: Um das therapeutische Potenzial der EP300/CREBBP-Hemmung in vivo weiter zu erforschen, haben die Erfinder Versuchstiere in drei verschiedenen Nagetiermodellen mit etablierter PAH mit der Substanz SGC-CBP30 behandelt, wobei SGC-CBP30 durch intra-tracheale Vernebelung über zwei Wochen lang dreimal wöchentlich verabreicht wurde. Es wurden folgende drei verschiedenen Nagetiermodelle für eine PAH (FHR-PAH, MCT-PAH und SuHx-PAH) getestet: • Fawn-hooded hypertensive Ratten (FHR): Das ist ein genetischer Rattenstamm, bei dem PAH im Alter spontan auftritt und der ähnliche PAH-Anomalien aufweist, wie sie bei IPAH bei Menschen nach 40 Wochen auftreten. • Durch Monocrotalin (MCT) induziertes PAH-Rattenmodell. • Ein SUGEN5416/chronische Hypoxie (SuHx)-Rattenmodell für PAH, bei dem die Ratten eine einmalige Injektion von SUGEN5416 erhielten und anschließend einer chronischen Hypoxie (10% O2) ausgesetzt wurden (SuHx-PAH).
Für die MCT-PAH wurden männlichen und weiblichen SD-Ratten (Sprague-Dawley-Ratten) subkutan 60 mg/kg MCT (Sigma, Katalog: C2401) injiziert, um PAH zu induzieren. Bei der SuHx-PAH erhielten SD-Ratten eine einmalige subkutane Injektion von SUGEN5416 (20 mg/kg) und wurden drei Wochen lang einer normobaren Hypoxie ausgesetzt, bevor sie für zwei Wochen an die Raumluft zurückkehrten. Zwei Wochen nach der MCT-Injektion bzw. drei Wochen nach der SUGEN5416-Injektion (sobald PAH festgestellt wurde) wurden die Ratten nach dem Zufallsprinzip in vier Gruppen eingeteilt und erhielten zwei Wochen lang dreimal wöchentlich entweder Vehikel (Verabreichung von 1 % Methylcellulose in destilliertem Wasser oder intratracheale Vernebelung von 4 % DMSO in PBS als Negativkontrolle), SGC-CBP30 (Verabreichung von 10 mg/kg in 1 % Methylcellulose + destilliertem Wasser) oder SGC-CBP30 (intratracheale Vernebelung von 275 nmol/kg in 4 % DMSO + PBS). Einjährige männliche und weibliche FHR-Ratten mit etablierter PAH wurden in dieselben vier Gruppen wie beim MCT-Modell eingeteilt und den selben Behandlungsmethoden unterzogen. Für die Vernebelung wurden die Ratten mit 3%igem Isofluran betäubt. Ein 16-Gauge-Katheter wurde in die Luftröhre eingeführt. Ein Vernebler (Aerogen) wurde an den Katheter angeschlossen, und für jede Behandlung wurde ein Volumen von 50 µl SGC-CBP30 oder dessen Vehikel (als Negativkontrolle) verabreicht. Nach zweiwöchiger Behandlung wurde eine Rechtsherzkatheteruntersuchung bei geschlossenem Thorax durchgeführt, um folgende hämodynamischen Daten zu erfassen: Systolischer Rechtsventrikulärer Druck (RVSP), mittlerer PA-Druck (mPAP), Herzzeitvolumen (CO) und Schlagvolumen (SV). Der Gesamtwiderstand der Lunge (TPR) wurde durch Division von mPAP durch CO ermittelt. Nach der hämodynamischen Messung wurden den Ratten Gewebeproben entnommen. Die Experimente wurden gemäß den Richtlinien des Canadian Council on Animal Care durchgeführt. Alle Protokolle wurden von der institutionellen Ethikkommission für Tiere (Tierschutzausschuss der Universität Laval) geprüft und genehmigt (Protokollnummer 2019-018-2). Alle Experimente folgten den Richtlinien für die präklinische Forschung bei PAH.
Der schwarze Balken zeigt 50 µm an. Die Daten sind als Mittelwert ± SD angegeben und die statistische Analyse wurde mit einem ungepaarten Student's t-Test durchgeführt. FHR, MCT und SU5416/chronische Hypoxie-Ratten: *P<0,05, **P<0,01 und ***P<0,001 gegenüber den mit Vehikel behandelten Gruppen. MCT-Rattenmodell: §P<0,05, §§P<0,01 und §§§P<0,001 gegenüber der unbehandelten Kontrollgruppe. • A: Schematische Darstellung des Versuchsaufbaus für die Behandlung von Fawn-hooded hypertensive Ratten (FHR) mit dem EP300/CREBBP-Inhibitor SGC-CBP30, der selektiv auf die Acetyltransferase EP300/CREBBP wirkt. […]

COc1ccc(CCc2nc3cc(-c4c(C)noc4C)ccc3n2C[C@H](C)N2CCOCC2)cc1Cl [SGC-CBP30, 2-[2-(3-Chloro-4-methoxyphenyl)ethyl]-5-(3,5-dimethyl-1,2-oxazol-4-yl)-1-[(S)-2-(morpholin-4-yl)propyl]-1H-benzimidazole]
RVSP (start two weeks after MCT): signifikanten Senkung
mPAP (start two weeks after MCT): signifikanten Senkung
CO: verbesserten sich nach der Behandlung mit der Substanz SGC-CBP30 bei FHR-PAH und MCT-PAH signifikant
SV: verbesserten sich nach der Behandlung mit der Substanz SGC-CBP30 bei FHR-PAH und MCT-PAH signifikant
mediale Wanddicke der distalen PAs: signifikant verringert
TPR (mPAP divided by CO): signifikanten Senkung

From EP4257135A1, “BENZIMIDAZOLE DERIVATIVES FOR PULMONARY ARTERIAL HYPERTENSION” (Justus-Liebig-Universität Gießen, priority 2022, dated 2023)
